Tests used:
[1] = tested on: SMN FL and SMN Δ7 in spinal muscular atrophy (SMA) patient fibroblasts (GM03813, Coriell); test: Quantitative splicing assay (SMN), qPCR; type: cell-based, human; settings: Homo sapiens, Fibroblast, 24 h, SMA patient fibroblasts GM03813, 24 h, qPCR; read-out: SMN2 Splicing FL EC50
Method: Spinal muscular atrophy (SMA) patient fibroblasts (GM03813, Coriell) are plated in 96-well plates at 50,000 cells/well. […] Treated cells are lysed and cDNA synthesized using the Fast Advanced Cells-to-Ct kit (Thermofisher A35378) according to the manufacturer's instructions. 2 μL of each cDNA are used in qPCR reactions. […] Reactions are run in a Quant Studio 6 qPCR instrument with default settings.

[2] = tested on: mHTT protein in GM04724 (CAG 70/20) Huntington's disease patient lymphoblast cells; test: mHTT protein assay, 2B7-MW1 assay via Mesoscale Discovery (MSD); type: cell-based, human; settings: GM04724 Huntington's disease patient lymphoblasts
Method in brief: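 Patient lymphoblasts treated 48 h with compound from 10 μM to 0.6 nM. mHTT quantified by MSD 2B7-MW1 immunoassay, whose signal depends on polyQ expansion and HTT size. Viability measured on a replicate plate by CellTiter Glo.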

MDR1 = test: Blood-brain-barrier (BBB) penetration potential via MDCK-MDR1 permeability assay; settings: dog, MDCK-MDR1, pH 7.4, MDCK-MDR1: Efflux, efflux ratio
[3] = tested on: MDR1-MDCK cell monolayers; test: as above; settings: for MDCK-MDR1: % Recov A-B: A-B direction; for MDCK-MDR1: % Recov B-A: B-A direction
MDR1 (P-gp) = test: as above; settings: dog; for Papp A→B at 120 min, 5 μM: MDCK-MDR1, pH 7.4, MDCK-MDR1: Papp A-B, A-B direction; for Papp B→A at 120 min, 5 μM: MDCK-MDR1, pH 7.4, MDCK-MDR1: Papp B-A, B-A direction
[4] = tested on: SMN protein in spinal muscular atrophy (SMA) patient fibroblasts (GM03813, Coriell); test: SMN protein assay, Mesoscale Discovery (MSD); type: cell-based, human; settings: SMA patient fibroblasts GM03813, 48 hours, MSD; read-out: SMN2 protein EC50
Method in brief: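 SMA patient fibroblasts (GM03813) seeded at 7000 cells/well and exposed to compound at 2.5 μM to 0.6 nM for 48 hours. Lysates assayed for SMN by MSD immunoassay, with absolute SMN amount calculated from a per-plate SMN standard curve (1 μg/ml to 19.5 pg/ml).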

## CN(c1ccc(-c2cc3cccnc3cc2O)nn1)[C@@H]1C[C@H]2CC[C@H](N2)[C@@H]1F [Compound 74A, 6-(6-(((1S,2S,3R,5R)-2-fluoro-8-azabicyclo[3.2.1]octan-3-yl)(methyl)amino)pyridazin-3-yl)quinolin-7-ol]
[1]
  EC50: 101 to 500 nM
[2]
  EC50: 16 to 50 nM
MDR1
  efflux ratio at 120 min, 5 μM: 14
[3]
  MDCK-MDR1: % Recov A-B: 69%
  MDCK-MDR1: % Recov B-A: 81%
MDR1 (P-gp)
  Papp A→B at 120 min, 5 μM: 3.13 ×10⁻⁶ cm/s
  Papp B→A at 120 min, 5 μM: 44.5 ×10⁻⁶ cm/s
[4]
  EC50: 16 to 50 nM

## CN(c1ccc(-c2cc3nccnc3cc2O)nn1)[C@@H]1C[C@H]2CC[C@H](N2)[C@@H]1F [Compound 88A, 7-(6-(((1S,2S,3R,5R)-2-fluoro-8-azabicyclo[3.2.1]octan-3-yl)(methyl)amino)pyridazin-3-yl)quinoxalin-6-ol]
[1]
  EC50: 101 to 500 nM
[2]
  EC50: 51 to 100 nM
MDR1
  efflux ratio at 120 min, 5 μM: 9
[3]
  MDCK-MDR1: % Recov A-B: 85%
  MDCK-MDR1: % Recov B-A: 99%
MDR1 (P-gp)
  Papp A→B at 120 min, 5 μM: 4.84 ×10⁻⁶ cm/s
  Papp B→A at 120 min, 5 μM: 45.7 ×10⁻⁶ cm/s
[4]
  EC50: 16 to 50 nM

## CN(c1ccc(-c2cc3ncn(CC(F)(F)F)c(=O)c3cc2O)nn1)[C@H]1C[C@@H]2CC[C@@H](N2)[C@H]1F [Compound 81B, 7-(6-(((1R,2R,3S,5S)-2-fluoro-8-azabicyclo[3.2.1]octan-3-yl)(methyl)amino)pyridazin-3-yl)-6-hydroxy-3-(2,2,2-trifluoroethyl)quinazolin-4(3H)-one]
[1]
  EC50: 16 to 50 nM
[2]
  EC50: 51 to 100 nM
MDR1
  efflux ratio at 120 min, 5 μM: 138
[3]
  MDCK-MDR1: % Recov A-B: 96%
  MDCK-MDR1: % Recov B-A: 100%
MDR1 (P-gp)
  Papp A→B at 120 min, 5 μM: 0.4 ×10⁻⁶ cm/s
  Papp B→A at 120 min, 5 μM: 54.6 ×10⁻⁶ cm/s
[4]
  EC50: 0.01 to 15 nM

## CN(c1ccc(-c2cc3ncn(CC(F)(F)F)c(=O)c3cc2O)nn1)[C@@H]1C[C@H]2CC(F)(F)[C@@H](C1)N2 [Compound 59A, 7-(6-(((1S,3R,5R)-6,6-difluoro-8-azabicyclo[3.2.1]octan-3-yl)(methyl)amino)pyridazin-3-yl)-6-hydroxy-3-(2,2,2-trifluoroethyl)quinazolin-4(3H)-one]
[1]
  EC50: 51 to 100 nM
[2]
  EC50: 101 to 500 nM
MDR1
  efflux ratio at 120 min, 5 μM: 35
[3]
  MDCK-MDR1: % Recov A-B: 97%
  MDCK-MDR1: % Recov B-A: 96%
MDR1 (P-gp)
  Papp A→B at 120 min, 5 μM: 2.11 ×10⁻⁶ cm/s
  Papp B→A at 120 min, 5 μM: 74 ×10⁻⁶ cm/s
[4]
  EC50: 16 to 50 nM

## CN(c1ccc(-c2cc3nnccc3cc2O)nn1)[C@@H]1C[C@H]2CC[C@H](N2)[C@@H]1F [Compound 89A, 7-(6-(((1S,2S,3R,5R)-2-fluoro-8-azabicyclo[3.2.1]octan-3-yl)(methyl)amino)pyridazin-3-yl)cinnolin-6-ol]
[1]
  EC50: 101 to 500 nM
[2]
  EC50: 101 to 500 nM
MDR1
  efflux ratio at 120 min, 5 μM: 51
[3]
  MDCK-MDR1: % Recov A-B: 92%
  MDCK-MDR1: % Recov B-A: 106%
MDR1 (P-gp)
  Papp A→B at 120 min, 5 μM: 1.31 ×10⁻⁶ cm/s
  Papp B→A at 120 min, 5 μM: 67.3 ×10⁻⁶ cm/s
[4]
  EC50: 16 to 50 nM

## CN(c1ccc(-c2ccc(-n3cnc(C#N)c3)cc2O)nn1)[C@H]1C[C@@H]2CCC[C@@H](N2)[C@H]1F [Compound 63B, 1-(4-(6-(((1R,2R,3S,5S)-2-fluoro-9-azabicyclo[3.3.1]nonan-3-yl)(methyl)amino)pyridazin-3-yl)-3-hydroxyphenyl)-1H-imidazole-4-carbonitrile]
[1]
  EC50: 16 to 50 nM
[2]
  EC50: 16 to 50 nM
MDR1
  efflux ratio at 120 min, 5 μM: 19
[3]
  MDCK-MDR1: % Recov A-B: 72%
  MDCK-MDR1: % Recov B-A: 96%
MDR1 (P-gp)
  Papp A→B at 120 min, 5 μM: 2.31 ×10⁻⁶ cm/s
  Papp B→A at 120 min, 5 μM: 44.9 ×10⁻⁶ cm/s
[4]
  EC50: 0.01 to 15 nM

## CN(c1ccc(-c2cc3ncn(CC(F)(F)F)c(=O)c3cc2O)nn1)[C@@H]1C[C@H]2CC[C@H](N2)[C@@H]1F [Compound 81A, 7-(6-(((1S,2S,3R,5R)-2-fluoro-8-azabicyclo[3.2.1]octan-3-yl)(methyl)amino)pyridazin-3-yl)-6-hydroxy-3-(2,2,2-trifluoroethyl)quinazolin-4(3H)-one]
[1]
  EC50: 51 to 100 nM
[2]
  EC50: 101 to 500 nM
MDR1
  efflux ratio at 120 min, 5 μM: 139
[3]
  MDCK-MDR1: % Recov A-B: 100%
  MDCK-MDR1: % Recov B-A: 94%
MDR1 (P-gp)
  Papp A→B at 120 min, 5 μM: 0.37 ×10⁻⁶ cm/s
  Papp B→A at 120 min, 5 μM: 51 ×10⁻⁶ cm/s
[4]
  EC50: 16 to 50 nM

Source: US12509460B2 (Skyhawk Therapeutics, Inc., priority 2019, dated 2025)
